Values of other authors, collected in patent US6426338B1, “Therapy for constipation” (priority 1997, dated 2002).

Tests used:
[1] = test system: patients with constipation; settings: colchicine alone, in a lower dose

Row | Compound | long-term toxicity (given alone in the doses of Verne et al., long-term) | stimulation of defecation [1] | side-effect (long-term use as antibiotic)
1 | COc1cc2c(c(OC)c1OC)-c1ccc(OC)c(=O)cc1[C@@H](NC(C)=O)CC2 [colchicine] | can cause muscle and nerve damage (myopathy and neuropathy) | insufficient in most patients to stimulate defecation | –
2 | CN[C@H](CC(C)C)C(=O)N[C@H]1C(=O)N[C@@H](CC(N)=O)C(=O)N[C@H]2C(=O)N[C@H]3C(=O)N[C@H](C(=O)N[C@H](C(=O)O)c4cc(O)cc(O)c4-c4cc3ccc4O)[C@H](O)c3ccc(c(Cl)c3)Oc3cc2cc(c3O[C@@H]2O[C@H](CO)[C@@H](O)[C@H](O)[C@H]2O[C@H]2C[C@](C)(N)[C@H](O)[C@H](C)O2)Oc2ccc(cc2Cl)[C@H]1O [vancomycin] | – | – | neurotoxic
